# Assays:
# [1] = test system: Salmonella typhimurium; experiment: Bactericidal activity against Salmonella typhimurium ATCC 14028 incubated for 4 hrs followed by culture spread on agar plates and cultured overnight; assay type: functional, Salmonella enterica subsp. enterica serovar Typhimurium; conditions: Salmonella enterica, ATCC 14028, 4 h; read-out: MBC>99.9
# [2] = test system: Pseudomonas aeruginosa; experiment: Antimicrobial activity against Pseudomonas aeruginosa 25349 clinical isolates after 24 hrs by NCCLS-protocol based assay; assay type: functional; conditions: Pseudomonas aeruginosa, 25349, 24 h
# [3] = test system: Acinetobacter baumannii; experiment: Antimicrobial activity against Acinetobacter baumannii after 24 hrs by NCCLS-protocol based assay; assay type: functional
# [4] = Antimicrobial activity against Salmonella pullorum C7913 after 24 hrs by NCCLS-protocol based assay; assay type: functional, Salmonella enterica subsp. enterica serovar Pullorum; conditions: Salmonella enterica, C7913, 24 h
# [5] = test system: Salmonella typhimurium; experiment: Antimicrobial activity against Salmonella typhimurium ATCC 14028 after 24 hrs by NCCLS-protocol based assay; assay type: functional, Salmonella enterica subsp. enterica serovar Typhimurium; conditions: Salmonella enterica, ATCC 14028, 24 h
# [6] = test system: Acinetobacter baumannii; experiment: Bactericidal activity against Acinetobacter baumannii incubated for 4 hrs followed by culture spread on agar plates and cultured overnight; assay type: functional; conditions: read-out: MBC>99.9
# [7] = test system: Pseudomonas aeruginosa; experiment: Bactericidal activity against Pseudomonas aeruginosa ATCC 27853 incubated for 4 hrs followed by culture spread on agar plates and cultured overnight; assay type: functional; conditions: ATCC 27853, 4 h, read-out: MBC>99.9
# [8] = Bactericidal activity against Salmonella pullorum C7913 incubated for 4 hrs followed by culture spread on agar plates and cultured overnight; assay type: functional, Salmonella enterica subsp. enterica serovar Pullorum; conditions: Salmonella enterica, C7913, 4 h; read-out: MBC>99.9
# [9] = test system: Escherichia coli; experiment: Antimicrobial activity against Escherichia coli K88 after 24 hrs by NCCLS-protocol based assay; assay type: functional; conditions: K88, 24 h
# [10] = test system: Klebsiella pneumoniae; experiment: Bactericidal activity against Klebsiella pneumoniae incubated for 4 hrs followed by culture spread on agar plates and cultured overnight; assay type: functional; conditions: read-out: MBC>99.9
# [11] = test system: Pseudomonas aeruginosa; experiment: Antimicrobial activity against Pseudomonas aeruginosa PAO1 after 24 hrs by NCCLS-protocol based assay; assay type: functional; conditions: PAO1, 24 h
# [12] = test system: Pseudomonas aeruginosa; experiment: Bactericidal activity against Pseudomonas aeruginosa PAO1 incubated for 4 hrs followed by culture spread on agar plates and cultured overnight; assay type: functional; conditions: PAO1, 4 h, read-out: MBC>99.9
# [13] = test system: Pseudomonas aeruginosa; experiment: Antimicrobial activity against Pseudomonas aeruginosa CICC 21625 clinical isolates after 24 hrs by NCCLS-protocol based assay; assay type: functional; conditions: CICC 21625, 24 h
# [14] = test system: Escherichia coli; experiment: Bactericidal activity against Escherichia coli UB1005 incubated for 4 hrs followed by culture spread on agar plates and cultured overnight; assay type: functional; conditions: UB1005, 4 h, read-out: MBC>99.9
# [15] = test system: Pseudomonas aeruginosa; experiment: Antimicrobial activity against Pseudomonas aeruginosa ATCC 27853 after 24 hrs by NCCLS-protocol based assay; assay type: functional; conditions: ATCC 27853, 24 h
# [16] = test system: Escherichia coli; experiment: Antimicrobial activity against Escherichia coli ATCC 25922 after 24 hrs by NCCLS-protocol based assay; assay type: functional; conditions: ATCC 25922, 24 h
# [17] = test system: Escherichia coli; experiment: Antimicrobial activity against Escherichia coli UB1005 after 24 hrs by NCCLS-protocol based assay; assay type: functional; conditions: UB1005, 24 h
# [18] = test system: Salmonella typhimurium; experiment: Bactericidal activity against Salmonella typhimurium C7731 incubated for 4 hrs followed by culture spread on agar plates and cultured overnight; assay type: functional, Salmonella enterica subsp. enterica serovar Typhimurium; conditions: Salmonella enterica, C7731, 4 h; read-out: MBC>99.9
# [19] = test system: Escherichia coli; experiment: Antimicrobial activity against Escherichia coli K99 after 24 hrs by NCCLS-protocol based assay; assay type: functional; conditions: K99, 24 h
# [20] = test system: Escherichia coli; experiment: Antimicrobial activity against Escherichia coli 078 after 24 hrs by NCCLS-protocol based assay; assay type: functional; conditions: Escherichia coli, 078, 24 h
# [21] = test system: Klebsiella pneumoniae; experiment: Antimicrobial activity against Klebsiella pneumoniae after 24 hrs by NCCLS-protocol based assay; assay type: functional
# [22] = test system: Pseudomonas aeruginosa; experiment: Antimicrobial activity against Pseudomonas aeruginosa CICC 21630 clinical isolates after 24 hrs by NCCLS-protocol based assay; assay type: functional; conditions: CICC 21630, 24 h
# [23] = test system: Pseudomonas aeruginosa; experiment: Bactericidal activity against Pseudomonas aeruginosa 26305 clinical isolates incubated for 4 hrs followed by culture spread on agar plates and cultured overnight; assay type: functional; conditions: Pseudomonas aeruginosa, 26305, 4 h; read-out: MBC>99.9
# [24] = test system: Salmonella typhimurium; experiment: Antimicrobial activity against Salmonella typhimurium C7731 after 24 hrs by NCCLS-protocol based assay; assay type: functional, Salmonella enterica subsp. enterica serovar Typhimurium; conditions: Salmonella enterica, C7731, 24 h
# [25] = test system: Escherichia coli; experiment: Bactericidal activity against Escherichia coli 078 incubated for 4 hrs followed by culture spread on agar plates and cultured overnight; assay type: functional; conditions: Escherichia coli, 078, 4 h; read-out: MBC>99.9
# [26] = test system: Pseudomonas aeruginosa; experiment: Bactericidal activity against Pseudomonas aeruginosa CICC 21630 clinical isolates incubated for 4 hrs followed by culture spread on agar plates and cultured overnight; assay type: functional; conditions: CICC 21630, 4 h, read-out: MBC>99.9
# [27] = test system: Pseudomonas aeruginosa; experiment: Bactericidal activity against Pseudomonas aeruginosa CICC 21625 clinical isolates incubated for 4 hrs followed by culture spread on agar plates and cultured overnight; assay type: functional; conditions: CICC 21625, 4 h, read-out: MBC>99.9
# [28] = test system: Escherichia coli; experiment: Bactericidal activity against Escherichia coli ATCC 25922 incubated for 4 hrs followed by culture spread on agar plates and cultured overnight; assay type: functional; conditions: ATCC 25922, 4 h, read-out: MBC>99.9
# [29] = test system: Pseudomonas aeruginosa; experiment: Bactericidal activity against Pseudomonas aeruginosa 25349 clinical isolates incubated for 4 hrs followed by culture spread on agar plates and cultured overnight; assay type: functional; conditions: Pseudomonas aeruginosa, 25349, 4 h; read-out: MBC>99.9
# [30] = test system: Escherichia coli; experiment: Bactericidal activity against Escherichia coli K99 incubated for 4 hrs followed by culture spread on agar plates and cultured overnight; assay type: functional; conditions: K99, 4 h, read-out: MBC>99.9
# [31] = test system: Pseudomonas aeruginosa; experiment: Antimicrobial activity against Pseudomonas aeruginosa 26305 clinical isolates after 24 hrs by NCCLS-protocol based assay; assay type: functional; conditions: Pseudomonas aeruginosa, 26305, 24 h
# [32] = test system: Escherichia coli; experiment: Bactericidal activity against Escherichia coli K88 incubated for 4 hrs followed by culture spread on agar plates and cultured overnight; assay type: functional; conditions: K88, 4 h, read-out: MBC>99.9
Substance,MIC95 [2],MIC95 [3],MIC95 [4],MIC95 [5],MIC95 [9],MIC95 [11],MIC95 [13],MIC95 [15],MIC95 [16],MIC95 [17],MIC95 [19],MIC95 [20],MBC [1],MBC [6],MBC [7],MBC [8],MBC [10],MBC [12],MBC [14],MBC [18],other results
H-IRPIIRPIIRPIIRPIIRPIIRPIIRPIIRPI-NH2,> 64 µM,2 µM,4 µM,8 µM,2 µM,4 µM,> 64 µM,8 µM,2 µM,2 µM,1 µM,2 µM,16 µM,4 µM,8 µM,4 µM,8 µM,4 µM,2 µM,> 64 µM,MIC95 [21]: 4 µM; MIC95 [22]: > 64 µM; MBC [23]: > 64 µM; MIC95 [24]: 64 µM; MBC [25]: 2 µM; MBC [26]: > 64 µM; MBC [27]: > 64 µM; MBC [28]: 2 µM; MBC [29]: > 64 µM; MBC [30]: 2 µM; MIC95 [31]: > 64 µM; MBC [32]: 2 µM
H-LKPLLKPLLKPLLKPLLKPLLKPLLKPLLKPL-NH2,4 µM,1 µM,2 µM,2 µM,1 µM,1 µM,4 µM,2 µM,1 µM,2 µM,1 µM,2 µM,4 µM,1 µM,2 µM,4 µM,2 µM,2 µM,4 µM,4 µM,MIC95 [21]: 1 µM; MIC95 [22]: 4 µM; MBC [23]: 8 µM; MIC95 [24]: 4 µM; MBC [25]: 2 µM; MBC [26]: 8 µM; MBC [27]: 16 µM; MBC [28]: 1 µM; MBC [29]: 16 µM; MBC [30]: 2 µM; MIC95 [31]: 4 µM; MBC [32]: 1 µM
H-LRPLLRPLLRPLLRPL-NH2,> 64 µM,2 µM,8 µM,32 µM,8 µM,> 64 µM,64 µM,> 64 µM,8 µM,32 µM,32 µM,16 µM,64 µM,8 µM,> 64 µM,16 µM,> 64 µM,> 64 µM,32 µM,64 µM,MIC95 [21]: > 64 µM; MIC95 [22]: > 64 µM; MBC [23]: > 64 µM; MIC95 [24]: 64 µM; MBC [25]: 16 µM; MBC [26]: > 64 µM; MBC [27]: > 64 µM; MBC [28]: 8 µM; MBC [29]: > 64 µM; MBC [30]: 32 µM; MIC95 [31]: > 64 µM; MBC [32]: 8 µM
H-LRPLLRPLLRPLLRPLLRPL-NH2,32 µM,2 µM,2 µM,4 µM,2 µM,32 µM,32 µM,32 µM,4 µM,4 µM,4 µM,4 µM,16 µM,4 µM,16 µM,4 µM,8 µM,32 µM,8 µM,8 µM,MIC95 [21]: 8 µM; MIC95 [22]: 16 µM; MBC [23]: 32 µM; MIC95 [24]: 4 µM; MBC [25]: 4 µM; MBC [26]: 16 µM; MBC [27]: 32 µM; MBC [28]: 4 µM; MBC [29]: 32 µM; MBC [30]: 8 µM; MIC95 [31]: 32 µM; MBC [32]: 4 µM
H-LRPLLRPLLRPLLRPLLRPLLRPLLRPLLRPL-NH2,2 µM,1 µM,1 µM,2 µM,1 µM,2 µM,8 µM,2 µM,2 µM,2 µM,1 µM,1 µM,4 µM,1 µM,4 µM,2 µM,4 µM,4 µM,4 µM,4 µM,MIC95 [21]: 2 µM; MIC95 [22]: 4 µM; MBC [23]: 4 µM; MIC95 [24]: 2 µM; MBC [25]: 2 µM; MBC [26]: 4 µM; MBC [27]: 8 µM; MBC [28]: 2 µM; MBC [29]: 4 µM; MBC [30]: 2 µM; MIC95 [31]: 2 µM; MBC [32]: 1 µM

# Second part, led by results:
MIC95 [2],MIC95 [3],MIC95 [4],MIC95 [5],MIC95 [9],MIC95 [11],MIC95 [13],MIC95 [15],MIC95 [16],MIC95 [17],MIC95 [19],MIC95 [20],Substance,MBC [1],MBC [6],MBC [7],MBC [8],MBC [10],MBC [12],MBC [14],MBC [18],other results
> 64 µM,4 µM,8 µM,8 µM,1 µM,64 µM,> 64 µM,32 µM,8 µM,4 µM,4 µM,8 µM,H-IRPIIRPIIRPIIRPIIRPI-NH2,8 µM,4 µM,64 µM,8 µM,16 µM,64 µM,8 µM,16 µM,MIC95 [21]: 8 µM; MIC95 [22]: > 64 µM; MBC [23]: > 64 µM; MIC95 [24]: 16 µM; MBC [25]: 16 µM; MBC [26]: > 64 µM; MBC [27]: > 64 µM; MBC [28]: 8 µM; MBC [29]: > 64 µM; MBC [30]: 4 µM; MIC95 [31]: > 64 µM; MBC [32]: 1 µM
> 64 µM,4 µM,32 µM,> 64 µM,16 µM,> 64 µM,> 64 µM,> 64 µM,16 µM,16 µM,16 µM,32 µM,H-LKPLLKPLLKPLLKPL-NH2,> 64 µM,8 µM,> 64 µM,64 µM,> 64 µM,> 64 µM,64 µM,> 64 µM,MIC95 [21]: > 64 µM; MIC95 [22]: > 64 µM; MBC [23]: > 64 µM; MIC95 [24]: > 64 µM; MBC [25]: 64 µM; MBC [26]: > 64 µM; MBC [27]: > 64 µM; MBC [28]: 32 µM; MBC [29]: > 64 µM; MBC [30]: 32 µM; MIC95 [31]: > 64 µM; MBC [32]: 16 µM
32 µM,4 µM,4 µM,8 µM,2 µM,> 64 µM,> 64 µM,16 µM,2 µM,2 µM,2 µM,4 µM,H-LKPLLKPLLKPLLKPLLKPL-NH2,16 µM,4 µM,16 µM,8 µM,64 µM,> 64 µM,8 µM,16 µM,MIC95 [21]: 32 µM; MIC95 [22]: 32 µM; MBC [23]: 64 µM; MIC95 [24]: 16 µM; MBC [25]: 8 µM; MBC [26]: 64 µM; MBC [27]: > 64 µM; MBC [28]: 4 µM; MBC [29]: 64 µM; MBC [30]: 4 µM; MIC95 [31]: 32 µM; MBC [32]: 2 µM

# — ChEMBL document CHEMBL4316596, “Antimicrobial Peptides with High Proteolytic Resistance for Combating Gram-Negative Bacteria” (J Med Chem, 2019)
